This is an account of results in patent US8765778B2, “Rifamycin derivatives” (Alfa Wassermann, S.p.A., priority 2009, dated 2014).

Values after ≈ are worked out from the molar mass of the structure shown.

For one test, the system named is E. coli. As to conditions: E. coli ATCC 25922, control standard. From the text:
(§1) They are expressed as milligrams of substance per liter of culture medium.

The test system of a further test is P. aeruginosa. As to conditions: P. aeruginosa ATCC 27853, control standard.
Description: as §1

The test system of a further test is S. aureus. Particulars: S. aureus ATCC29213, control standard.
Description: as §1

In the next test the test system is bacterial infection. Particulars: following a 10 day course of treatment with a pharmaceutical formulation. The source says:
A patient suffering from a bacterial infection is identified.

A further test has as its system E. faecalis. Particulars: ATCC 29212, control standard.

One may read the MIC as the smallest concentration in the dilution series that meets the test's criterion for growth inhibition. On to `COC1/C=C/OC2(C)Oc3c(C)c(O)c4c([O-])c(c5c([nH]c6cc(C)cc[n+]65)c4c3C2=O)NC(=O)/C(CO)=C\C=C\C(C)C(O)C(C)C(O)C(C)C(OC(C)=O)C1C` (centres unmarked) [Example 2], for which the MIC with E. coli and in the test on P. aeruginosa was 32 µg/mL (≈ 39.9 µM) in each case. Moreover, the figures for the M.I.C. in the test with S. aureus and with E. faecalis were 0.5 mg/mL and 64 mg/mL, respectively. In the test on bacterial infection, the “level of bacterial infection in the patient” value is “reduced”.
